Experimental data taken from US7662831B2, “Tetracyclic indoles as potassium channel modulators” (Wyeth LLC, priority 2006, dated 2010).

Each molecule was assayed on isolated rat bladder strips (assay: Inhibition of contractions of isolated rat bladder strips (KCl-enhanced contractile activity)). Settings: 0.5 h; isolated Sprague-Dawley rat bladder strips, 15 mM KCl added, 30 min challenge per concentration; read-out: IC50 (concentration required to elicit 50% inhibition of pre-drug contractile activity).
Experimental: The compounds of the examples were tested to determine their ability to inhibit contractions of isolated rat bladder strips. See Foster, C. D. et al. Br. J. Pharmacol. 97:281-291, 1989; and Fujii, K. et al. Br. J. Pharmacol. 99:779-785, 1990. Malmgren, A. et al. J. Urol. 143:828-834, 1990, each of which are incorporated herein by reference in its entirety.
Male Sprague-Dawley rats (150-200 g) were obtained from ACE animal suppliers. Animals were allowed free access to food and water.
Animals were euthanized by CO2 asphyxiation followed by a bilateral thoracotomy. The bladder was removed into warm (37 deg. C.) physiological salt solution (PSS) of the following composition (mM): NaCl, 118.4; KCl, 4.7; CaCl2, 2.5; MgSO4.7H2O, 1.2; NaHCO3, 24.9; KH2PO4, 1.2; glucose, 11.1; EDTA, 0.023; gassed with 95% O2/5% CO2; pH 7.4. The bladder was opened and then cut into strips 1-2 mm in width and 7-10 mm in length. The strips were subsequently suspended in a 10 ml tissue bath under an initial resting tension of 1.5 g. The strips were held in place by two surgical clips one of which was attached to a fixed hook while the other was attached to an isometric force transducer. […] The carbachol was then washed out and the tissue allowed to relax to its resting level of activity. Following a further thirty minute period of recovery an additional 15 mM KCl was introduced into the tissue bath. This increase in KCl concentration results in a large increase in the amplitude of spontaneous contractions (and initiation of contractions in previously quiescent strips) superimposed upon a small increase in basal tone. Following stabilization of this enhanced level of contractile activity, incremental increases in the concentration of test compound or vehicle were introduced into the tissue bath. Contractile activity was measured for each compound or vehicle concentration during the last minute of a thirty minute challenge.
Isometric force developed by the bladder strips was measured using a force transducer and recorded on a polygraph. Contractile activity was assessed by measuring either the average amplitude of the contractions (baseline to peak force) occurring during a one min period or, preferably, by integrating the contractile activity with respect to time (one minute measuring period).
The percentage inhibition of contractile activity evoked by each concentration of a given test compounds was used to generate a concentration-response curve. The concentration of test compound required to elicit 50% inhibition of pre-drug contractile activity (IC50 concentration) was calculated from this concentration-response curve. The maximum percentage inhibition of contractile activity evoked by a test compound was also recorded for concentrations of test compound <- or 30 uM.
With `CC(C)CC(=O)Nc1cc2c3c(c1)c1c(n3CC2)CCCCC1` [Example 14, N-4,5,8,9,10,11-hexahydro-7H-cyclohepta[b]pyrrolo[3,2,1-hi]indol-2-yl-3-methylbutanamide] the IC50 was 800 to 1000 nM.
`CCCCCC(=O)Nc1cc2c3c(c1)c1c(n3CCC2)CCCC1` [Example 17, N-5,6,8,9,10,11-hexahydro-4H-pyrido[3,2,1-jk]carbazol-2-ylhexanamide] gave an IC50 of 400 to 800 nM.
Molecule `O=C(Cc1ccccc1)Nc1cc2c3c(c1)c1c(n3CC2)CCCCC1` [Example 13, N-4,5,8,9,10,11-hexahydro-7H-cyclohepta[b]pyrrolo[3,2,1-hi]indol-2-yl-2-phenylacetamide] has an IC50 of 500 to 600 nM.
With `CC(=O)Nc1cc2c3c(c1)c1c(n3CC2)CCCCC1` [Example 11, N-4,5,8,9,10,11-hexahydro-7H-cyclohepta[b]pyrrolo[3,2,1-hi]indol-2-ylacetamide] the IC50 was 650 to 700 nM.
Work on `CCCCC(=O)Nc1cc2c3c(c1)c1c(n3CCC2)CCCCC1` [Example 9, N-5,6,9,10,11,12-hexahydro-4H,8H-cyclohepta[4,5]pyrrolo[3,2,1-ij]quinolin-2-ylpentanamide] yielded an IC50 of 50 to 1000 nM.
In the case of `O=C(CCC1CCCC1)Nc1cc2c3c(c1)c1c(n3CC2)CCCCC1` [Example 15, 3-cyclopentyl-N-4,5,8,9,10,11-hexahydro-7H-cyclohepta[b]pyrrolo[3,2,1-hi]indol-2-ylpropanamide], the IC50 is reported as 300 to 1200 nM.
`CC(=O)Nc1cc2c3c(c1)c1c(n3CCC2)CCCC1` [Example 19, N-5,6,8,9,10,11-hexahydro-4H-pyrido[3,2,1-jk]carbazol-2-ylacetamide] was tested, and the IC50 was 2000 to 3000 nM.
`CCCCC(=O)Nc1cc2c3c(c1)c1c(n3CC2)CCCCC1` [Example 12, N-4,5,8,9,10,11-hexahydro-7H-cyclohepta[b]pyrrolo[3,2,1-hi]indol-2-ylpentanamide] gave an IC50 of 700 to 1000 nM.
Molecule `CCC(=O)Nc1cc2c3c(c1)c1c(n3CCC2)CCCCC1` [Example 7, N-5,6,9,10,11,12-hexahydro-4H,8H-cyclohepta[4,5]pyrrolo[3,2,1-ij]quinolin-2-ylpropanamide] has an IC50 of 400 to 550 nM.
`CCCCCC(=O)Nc1cc2c3c(c1)c1c(n3CC2)CCCCCC1` [Example 20, N-4,5,7,8,9,10,11,12-octahydrocycloocta[b]pyrrolo[3,2,1-hi]indol-2-ylhexanamide] gave an IC50 of 80 to 550 nM.
Molecule `CC(C)CC(=O)Nc1cc2c3c(c1)c1c(n3CCC2)CCCC1` [Example 18, N-5,6,8,9,10,11-hexahydro-4H-pyrido[3,2,1-jk]carbazol-2-yl-3-methylbutanamide] has an IC50 of 500 to 550 nM.
`CCCCCCC(=O)Nc1cc2c3c(c1)c1c(n3CC2)CCCCCC1` [Example 22, N-4,5,7,8,9,10,11,12-octahydrocycloocta[b]pyrrolo[3,2,1-hi]indol-2-ylheptanamide] was tested, and the IC50 was 800 to 1000 nM.
In the case of `CC(C)(C)CC(=O)Nc1cc2c3c(c1)c1c(n3CC2)CCCCCC1` [Example 21, 3,3-dimethyl-N-4,5,7,8,9,10,11,12-octahydrocycloocta[b]pyrrolo[3,2,1-hi]indol-2-ylbutanamide], the IC50 is reported as 160 to 700 nM.
With `CC(C)CC(=O)Nc1cc2c3c(c1)c1c(n3CCC2)CCCCC1` [Example 6, N-5,6,9,10,11,12-hexahydro-4H,8H-cyclohepta[4,5]pyrrolo[3,2,1-ij]quinolin-2-yl-3-methylbutanamide] the IC50 was 80 to 350 nM.
`CC(C)(C)CC(=O)Nc1cc2c3c(c1)c1c(n3CC2)CCCCC1` [Example 10, N-4,5,8,9,10,11-hexahydro-7H-cyclohepta[b]pyrrolo[3,2,1-hi]indol-2-yl-3,3-dimethylbutanamide] gave an IC50 of 150 to 350 nM.
`CC(C)(C)CC(=O)Nc1cc2c3c(c1)c1c(n3CCC2)CCCCC1` [Example 1, N-5,6,9,10,11,12-hexahydro-4H,8H-cyclohepta[4,5]pyrrolo[3,2,1-ij]quinolin-2-yl-3,3-dimethylbutanamide] showed an IC50 of 30 to 70 nM.
`CCCCCC(=O)Nc1cc2c3c(c1)c1c(n3CCC2)CCCCC1` [Example 3, N-5,6,9,10,11,12-hexahydro-4H,8H-cyclohepta[4,5]pyrrolo[3,2,1-ij]quinolin-2-ylhexanamide] gave an IC50 of 400 to 2600 nM.

Same assay, conditions: @ 3 μM; isolated rat bladder strips, 15 mM KCl added
In the case of `CC(C)(C)C(=O)Nc1cc2c3c(c1)c1c(n3CCC2)CCCCC1` [Example 2, N-5,6,9,10,11,12-hexahydro-4H,8H-cyclohepta[4,5]pyrrolo[3,2,1-ij]quinolin-2-yl-2,2-dimethylpropanamide], the “% Enhancement of Contractility @ 3 μM” value is reported as 20-100%.
With `O=C(Nc1cc2c3c(c1)c1c(n3CCC2)CCCCC1)C1CCCCC1` [Example 8, N-5,6,9,10,11,12-hexahydro-4H,8H-cyclohepta[4,5]pyrrolo[3,2,1-ij]quinolin-2-ylcyclohexanecarboxamide] the “% Enhancement of Contractility @ 3 μM” value was 150-200%.
With `O=C(Nc1cc2c3c(c1)c1c(n3CCC2)CCCCC1)c1cccs1` [Example 5, N-5,6,9,10,11,12-hexahydro-4H,8H-cyclohepta[4,5]pyrrolo[3,2,1-ij]quinolin-2-ylthiophene-2-carboxamide] the “% Enhancement of Contractility @ 3 μM” value was 60-90%.
`CC(C)(C)CC(=O)Nc1cc2c3c(c1)c1c(n3CCC2)CCCC1` [Example 16, N-5,6,8,9,10,11-hexahydro-4H-pyrido[3,2,1-jk]carbazol-2-yl-3,3-dimethylbutanamide] was tested, and the “% Enhancement of Contractility @ 3 μM” value was 80-100%.

Same assay, conditions: @ 3 μM; isolated rat bladder strips, 15 mM KCl added; read-out: % Inhibition of Contractility @ 3 μM
`CC(C)(C)CC(=O)Nc1cc2c3c(c1)c1c(n3CCC2)C(=O)CCCC1` [Example 23, 3,3-dimethyl-N-(8-oxo-5,6,9,10,11,12-hexahydro-4H,8H-cyclohepta[4,5]pyrrolo[3,2,1-ij]quinolin-2-yl)butanamide] showed an inhibition at 3 µM of 25 to 50%.
For `O=C(CCc1ccccc1)Nc1cc2c3c(c1)c1c(n3CCC2)CCCCC1` [Example 4, N-5,6,9,10,11,12-hexahydro-4H,8H-cyclohepta[4,5]pyrrolo[3,2,1-ij]quinolin-2-yl-3-phenylpropanamide], the inhibition at 3 µM was 5 to 20%.
